From article PMC5218480 (PLoS ONE, 2017)

Tested on: MV-4-11 cells
Test: Gene expression microarray analysis (Affymetrix PrimeView) and GSEA
Type: cell-based, human
Parameters: RFU PODN (11730768_x_at) / Fold change /veh PODN (11730768_x_at) / RFU LINC00158 (11744669_a_at) / Fold change /veh LINC00158 (11744669_a_at) / RFU DUSP10 (11751237_a_at) / Fold change /veh DUSP10 (11751237_a_at) / RFU ID3 (11757404_x_at) / Fold change /veh ID3 (11757404_x_at) / RFU PLEKHG5 (11737974_s_at) / Fold change /veh PLEKHG5 (11737974_s_at) / RFU LRRC4B (11730491_at) / Fold change /veh LRRC4B (11730491_at) / RFU GIMAP4 (11747438_a_at) / Fold change /veh GIMAP4 (11747438_a_at) / RFU KRT8 (11758183_x_at) / Fold change /veh KRT8 (11758183_x_at) / RFU CNN1 (11734310_a_at) / Fold change /veh CNN1 (11734310_a_at) / RFU VPS37D (11726825_at) / Fold change /veh VPS37D (11726825_at) / RFU C10orf10 (11716522_x_at) / Fold change /veh C10orf10 (11716522_x_at) / RFU KIR2DL2 /// KIR2DL4 /// KIR2DL5A /// KIR2DL5B /// KIR2DS1 /// KIR2DS2 /// KIR2DS3 /// KIR2DS4 /// KIR3DL3 /// KIR3DL3 /// KIR3DS1 (11738374_at) / Fold change /veh KIR2DL2 /// KIR2DL4 /// KIR2DL5A /// KIR2DL5B /// KIR2DS1 /// KIR2DS2 /// KIR2DS3 /// KIR2DS4 /// KIR3DL3 /// KIR3DL3 /// KIR3DS1 (11738374_at) / RFU C1QL1 (11718748_at) / Fold change /veh C1QL1 (11718748_at) / RFU TMPRSS4 (11747572_a_at) / Fold change /veh TMPRSS4 (11747572_a_at) / RFU HAMP (11756126_x_at) / Fold change /veh HAMP (11756126_x_at) / RFU RNFT2 (11725882_a_at) / Fold change /veh RNFT2 (11725882_a_at) / RFU NR4A2 (11747474_a_at) / Fold change /veh NR4A2 (11747474_a_at) / RFU ABCC12 (11746883_a_at) / Fold change /veh ABCC12 (11746883_a_at) / RFU TMEM136 (11760407_x_at) / Fold change /veh TMEM136 (11760407_x_at) / RFU CLDN22 /// WWC2 (11732394_at) / Fold change /veh CLDN22 /// WWC2 (11732394_at) / RFU HLA-DPB1 (11760878_x_at) / Fold change /veh HLA-DPB1 (11760878_x_at) / RFU SPINT1 (11716480_a_at) / Fold change /veh SPINT1 (11716480_a_at) / RFU GAP43 (11754022_s_at) / Fold change /veh GAP43 (11754022_s_at) / RFU A4GNT (11735810_at) / Fold change /veh A4GNT (11735810_at) / RFU PRB3 (11715151_x_at) / Fold change /veh PRB3 (11715151_x_at) / RFU TUBB4B (11761932_at) / Fold change /veh TUBB4B (11761932_at) / RFU CAPN14 (11732068_a_at) / Fold change /veh CAPN14 (11732068_a_at) / RFU TMCC2 (11721928_a_at) / Fold change /veh TMCC2 (11721928_a_at) / RFU IRGQ (11745062_a_at) / Fold change /veh IRGQ (11745062_a_at) / RFU FAM174B (11720279_a_at) / Fold change /veh FAM174B (11720279_a_at) / RFU TMPRSS4 (11748680_a_at) / Fold change /veh TMPRSS4 (11748680_a_at) / RFU FAM212B (11763350_a_at) / Fold change /veh FAM212B (11763350_a_at) / RFU PLEKHG5 (11743358_a_at) / Fold change /veh PLEKHG5 (11743358_a_at) / RFU ZSCAN30 (11745921_a_at) / Fold change /veh ZSCAN30 (11745921_a_at) / RFU CMKLR1 (11741424_a_at) / Fold change /veh CMKLR1 (11741424_a_at) / RFU LOC101060620 /// MAPK8IP1 (11723275_at) / Fold change /veh LOC101060620 /// MAPK8IP1 (11723275_at) / RFU SPTSSB (11747773_x_at) / Fold change /veh SPTSSB (11747773_x_at) / RFU PRSS12 (11739890_at) / Fold change /veh PRSS12 (11739890_at) / RFU BIN1 (11741810_x_at) / Fold change /veh BIN1 (11741810_x_at) / RFU WNT11 (11732464_a_at) / Fold change /veh WNT11 (11732464_a_at) / RFU C10orf10 (11716521_a_at) / Fold change /veh C10orf10 (11716521_a_at) / RFU C5orf56 (11738089_at) / Fold change /veh C5orf56 (11738089_at) / RFU CYB561 (11721691_x_at) / Fold change /veh CYB561 (11721691_x_at) / RFU ANKRD19P (11752326_a_at) / Fold change /veh ANKRD19P (11752326_a_at) / RFU OR2T12 /// OR2T33 /// OR2T8 (11738714_s_at) / Fold change /veh OR2T12 /// OR2T33 /// OR2T8 (11738714_s_at) / RFU VCAN (11748164_a_at) / Fold change /veh VCAN (11748164_a_at) / RFU JSRP1 (11732532_at) / Fold change /veh JSRP1 (11732532_at) / RFU KRTAP10-11 (11738290_x_at) / Fold change /veh KRTAP10-11 (11738290_x_at) / RFU MYO3A (11730013_a_at) / Fold change /veh MYO3A (11730013_a_at) / RFU EBF3 (11725865_a_at) / Fold change /veh EBF3 (11725865_a_at) / RFU CAMK2N1 (11719241_x_at) / Fold change /veh CAMK2N1 (11719241_x_at) / RFU C5orf56 (11738088_a_at) / Fold change /veh C5orf56 (11738088_a_at) / RFU OLFML3 (11715873_a_at) / Fold change /veh OLFML3 (11715873_a_at) / RFU LOC100653217 /// NTM (11731650_a_at) / Fold change /veh LOC100653217 /// NTM (11731650_a_at) / RFU MAPK11 (11762145_a_at) / Fold change /veh MAPK11 (11762145_a_at) / RFU FIZ1 (11724087_x_at) / Fold change /veh FIZ1 (11724087_x_at) / RFU OASL (11726364_x_at) / Fold change /veh OASL (11726364_x_at) / RFU SOX15 (11748057_x_at) / Fold change /veh SOX15 (11748057_x_at) / RFU CD79A (11719716_a_at) / Fold change /veh CD79A (11719716_a_at) / RFU HIST1H1D (11736915_at) / Fold change /veh HIST1H1D (11736915_at) / RFU CASKIN2 (11723855_a_at) / Fold change /veh CASKIN2 (11723855_a_at) / RFU LOC730098 (11760151_x_at) / Fold change /veh LOC730098 (11760151_x_at) / RFU OR4N2 (11742367_at) / Fold change /veh OR4N2 (11742367_at) / RFU PRRT2 (11749266_a_at) / Fold change /veh PRRT2 (11749266_a_at) / RFU SNX32 (11753110_a_at) / Fold change /veh SNX32 (11753110_a_at) / RFU CDHR5 (11726645_a_at) / Fold change /veh CDHR5 (11726645_a_at) / RFU RCAN1 (11760418_a_at) / Fold change /veh RCAN1 (11760418_a_at) / RFU FAM167A (11723789_a_at) / Fold change /veh FAM167A (11723789_a_at) / RFU FAM26E (11764081_at) / Fold change /veh FAM26E (11764081_at) / RFU ISYNA1 (11749810_s_at) / Fold change /veh ISYNA1 (11749810_s_at) / RFU ACY1 (11761880_at) / Fold change /veh ACY1 (11761880_at) / RFU 11764098_at / Fold change /veh 11764098_at / RFU SAMD14 (11745864_x_at) / Fold change /veh SAMD14 (11745864_x_at) / RFU NPB (11741838_a_at) / Fold change /veh NPB (11741838_a_at) / RFU TMPRSS6 (11731388_a_at) / Fold change /veh TMPRSS6 (11731388_a_at) / RFU KRTAP10-2 (11738614_at) / Fold change /veh KRTAP10-2 (11738614_at) / RFU ARHGAP8 /// PRR5-ARHGAP8 (11727945_x_at) / Fold change /veh ARHGAP8 /// PRR5-ARHGAP8 (11727945_x_at) / RFU KRTAP5-7 /// NADSYN1 (11734609_at) / Fold change /veh KRTAP5-7 /// NADSYN1 (11734609_at) / RFU RASL12 (11751679_a_at) / Fold change /veh RASL12 (11751679_a_at) / RFU CDKN2B (11736163_a_at) / Fold change /veh CDKN2B (11736163_a_at) / RFU PRF1 (11729649_at) / Fold change /veh PRF1 (11729649_at) / RFU, ZNF638 /// ZNF638-IT1 / Fold change vs veh, ZNF638 /// ZNF638-IT1 / RFU, PANK3 / Fold change vs veh, PANK3 / RFU, SH3YL1 / Fold change vs veh, SH3YL1 / RFU, ZEB2 / Fold change vs veh, ZEB2 / RFU, NRIP1 / Fold change vs veh, NRIP1 / RFU, PTTG1IP / Fold change vs veh, PTTG1IP / RFU, CAPN2 / Fold change vs veh, CAPN2 / RFU, MED14 / Fold change vs veh, MED14 / RFU, SNORA58 / Fold change vs veh, SNORA58 / RFU, C1orf63 / Fold change vs veh, C1orf63 / RFU, LRRFIP1 / Fold change vs veh, LRRFIP1 / RFU, NDUFAF7 / Fold change vs veh, NDUFAF7 / RFU, SLC12A2 / Fold change vs veh, SLC12A2 / RFU, IBTK / Fold change vs veh, IBTK / RFU, ESF1 / Fold change vs veh, ESF1 / Fold change vs veh, TMEM50B / RFU, TAOK1 / Fold change vs veh, TAOK1 / RFU, ACBD3 / Fold change vs veh, ACBD3 / RFU, TMA16 / Fold change vs veh, TMA16 / RFU, RWDD3 / Fold change vs veh, RWDD3 / RFU, BCAT1 / Fold change vs veh, BCAT1 / RFU, EDEM3 / Fold change vs veh, EDEM3 / RFU, TMEM33 / Fold change vs veh, TMEM33 / RFU, WDR75 / Fold change vs veh, WDR75 / RFU, AHCTF1 / Fold change vs veh, AHCTF1 / RFU, TFRC / Fold change vs veh, TFRC / RFU, ZDHHC17 / Fold change vs veh, ZDHHC17 / RFU, NOM1 / Fold change vs veh, NOM1 / RFU, ARL8B / Fold change vs veh, ARL8B / RFU, ZBTB11 / Fold change vs veh, ZBTB11 / RFU, TAMM41 / Fold change vs veh, TAMM41 / RFU, KIAA1704 /// LOC100996395 / Fold change vs veh, KIAA1704 /// LOC100996395 / RFU, ING1 / Fold change vs veh, ING1 / RFU, TRMT61B / Fold change vs veh, TRMT61B / RFU, FUBP3 / Fold change vs veh, FUBP3 / RFU, TP53 / Fold change vs veh, TP53 / RFU, TNKS2 / Fold change vs veh, TNKS2 / RFU, ZFP14 / Fold change vs veh, ZFP14 / RFU, ACTR2 / Fold change vs veh, ACTR2 / RFU, PPP3R1 / Fold change vs veh, PPP3R1 / RFU, PIK3R1 / Fold change vs veh, PIK3R1 / RFU, HNRNPA1 / Fold change vs veh, HNRNPA1 / RFU, RNF170 / Fold change vs veh, RNF170 / RFU, ZNF28 / Fold change vs veh, ZNF28 / RFU, RNGTT / Fold change vs veh, RNGTT / RFU, OGT / Fold change vs veh, OGT / RFU, BRD1 / Fold change vs veh, BRD1 / RFU, MARS / Fold change vs veh, MARS / RFU, ZNF655 / Fold change vs veh, ZNF655 / RFU, FAHD1 / Fold change vs veh, FAHD1 / RFU, BDP1 / Fold change vs veh, BDP1 / RFU, LRRCC1 / Fold change vs veh, LRRCC1 / RFU, ARID1A / Fold change vs veh, ARID1A / RFU, ZNF146 / Fold change vs veh, ZNF146 / RFU, ZNF330 / Fold change vs veh, ZNF330 / RFU, GPN3 / Fold change vs veh, GPN3 / RFU, C9orf123 / Fold change vs veh, C9orf123 / RFU, N4BP2L2 / Fold change vs veh, N4BP2L2 / RFU, ARFIP1 / Fold change vs veh, ARFIP1 / RFU, FAM179B / Fold change vs veh, FAM179B / RFU, BCL10 / Fold change vs veh, BCL10 / RFU, UHRF1BP1L / Fold change vs veh, UHRF1BP1L / RFU, BET1 / Fold change vs veh, BET1 / RFU, CNOT2 / Fold change vs veh, CNOT2 / RFU, ZNF268 / Fold change vs veh, ZNF268 / Fold change vs veh, ZNF507 / RFU, DGCR2 / Fold change vs veh, DGCR2 / RFU, WDSUB1 / Fold change vs veh, WDSUB1 / Fold change vs veh, HSP90B1 /// MIR3652 / RFU, ADSS / Fold change vs veh, ADSS / RFU, GK / Fold change vs veh, GK / RFU, ZNF148 / Fold change vs veh, ZNF148 / RFU, TAF9 / Fold change vs veh, TAF9 / RFU, SLC1A5 / Fold change vs veh, SLC1A5 / RFU, SLMO2 / Fold change vs veh, SLMO2 / RFU, ABCC4 / Fold change vs veh, ABCC4 / RFU, LOC101060439 /// RAP1B / Fold change vs veh, LOC101060439 /// RAP1B / RFU, RFX7 / Fold change vs veh, RFX7 / RFU, GTPBP10 / Fold change vs veh, GTPBP10 / RFU, CNEP1R1 / Fold change vs veh, CNEP1R1 / RFU, BIVM-ERCC5 /// ERCC5 / Fold change vs veh, BIVM-ERCC5 /// ERCC5 / RFU, ILF3 / Fold change vs veh, ILF3 / RFU 11762660_at / Fold change /veh 11762660_at / RFU VCAN (11757783_s_at) / Fold change /veh VCAN (11757783_s_at) / RFU DDX43 (11728927_at) / Fold change /veh DDX43 (11728927_at) / RFU KRT8 (11758188_x_at) / Fold change /veh KRT8 (11758188_x_at) / RFU NKD1 (11759106_at) / Fold change /veh NKD1 (11759106_at) / RFU SRD5A1 (11742802_a_at) / Fold change /veh SRD5A1 (11742802_a_at) / RFU TPSAB1 /// TPSB2 (11721975_s_at) / Fold change /veh TPSAB1 /// TPSB2 (11721975_s_at) / RFU GSTM3 (11746129_a_at) / Fold change /veh GSTM3 (11746129_a_at) / RFU IL23R (11737362_x_at) / Fold change /veh IL23R (11737362_x_at) / RFU TMEM51 (11727254_a_at) / Fold change /veh TMEM51 (11727254_a_at) / RFU PIWIL2 (11732686_x_at) / Fold change /veh PIWIL2 (11732686_x_at) / RFU ORM1 (11744905_x_at) / Fold change /veh ORM1 (11744905_x_at) / RFU CCDC152 (11743942_at) / Fold change /veh CCDC152 (11743942_at) / RFU ECM1 (11717891_a_at) / Fold change /veh ECM1 (11717891_a_at) / RFU IL23R (11748794_a_at) / Fold change /veh IL23R (11748794_a_at) / RFU TNFAIP8L3 (11732012_x_at) / Fold change /veh TNFAIP8L3 (11732012_x_at) / RFU MBOAT4 (11741988_at) / Fold change /veh MBOAT4 (11741988_at) / RFU 11764193_at / Fold change /veh 11764193_at / RFU TMEM53 (11763286_at) / Fold change /veh TMEM53 (11763286_at) / RFU MAGEB2 (11727129_at) / Fold change /veh MAGEB2 (11727129_at) / RFU TMEM200A (11744735_a_at) / Fold change /veh TMEM200A (11744735_a_at) / RFU CCDC152 (11751479_a_at) / Fold change /veh CCDC152 (11751479_a_at) / RFU FAM211A (11726209_a_at) / Fold change /veh FAM211A (11726209_a_at) / RFU RGS16 (11746705_a_at) / Fold change /veh RGS16 (11746705_a_at) / RFU VCAN (11755009_s_at) / Fold change /veh VCAN (11755009_s_at) / RFU RHOB (11743442_s_at) / Fold change /veh RHOB (11743442_s_at) / RFU RGS16 (11720943_a_at) / Fold change /veh RGS16 (11720943_a_at) / RFU RGS16 (11720944_at) / Fold change /veh RGS16 (11720944_at) / RFU, VPS4B / Fold change vs veh, VPS4B / RFU, CREB1 / Fold change vs veh, CREB1 / RFU, DNAJC13 / Fold change vs veh, DNAJC13 / RFU, GNAQ / Fold change vs veh, GNAQ / RFU, CDK5R1 / Fold change vs veh, CDK5R1 / RFU, ZRANB3 / Fold change vs veh, ZRANB3 / RFU, CUL4A / Fold change vs veh, CUL4A / RFU, CCNY / Fold change vs veh, CCNY / RFU, UFL1 / Fold change vs veh, UFL1 / RFU, COG3 / Fold change vs veh, COG3 / RFU, DIAPH2 / Fold change vs veh, DIAPH2 / RFU, SKA2 / Fold change vs veh, SKA2 / RFU, AFF3 / Fold change vs veh, AFF3 / RFU, LMF1 / Fold change vs veh, LMF1 / RFU, IPO11 / Fold change vs veh, IPO11 / RFU, DFFB / Fold change vs veh, DFFB / RFU, FOXP1 / Fold change vs veh, FOXP1 / RFU, CARD8 / Fold change vs veh, CARD8 / RFU, STRN3 / Fold change vs veh, STRN3 / RFU, ADK / Fold change vs veh, ADK / RFU, RASSF2 / Fold change vs veh, RASSF2 / RFU, WIPF1 / Fold change vs veh, WIPF1 / RFU, LARP1B / Fold change vs veh, LARP1B / RFU, RASA1 / Fold change vs veh, RASA1 / RFU, RB1 / Fold change vs veh, RB1 / RFU, PPFIA1 / Fold change vs veh, PPFIA1 / RFU, MAT2A / Fold change vs veh, MAT2A / RFU, CCT5 / Fold change vs veh, CCT5 / RFU, WDR92 / Fold change vs veh, WDR92 / RFU, CUX1 / Fold change vs veh, CUX1 / RFU, TTC7A / Fold change vs veh, TTC7A / RFU, TMEM135 / Fold change vs veh, TMEM135 / RFU, DEPTOR / Fold change vs veh, DEPTOR / RFU, CPM / Fold change vs veh, CPM / RFU, DNAJB6 / Fold change vs veh, DNAJB6 / RFU, CACNA2D3 / Fold change vs veh, CACNA2D3 / RFU, DTX4 / Fold change vs veh, DTX4 / RFU, TFCP2 / Fold change vs veh, TFCP2 / RFU, GMCL1 /// GMCL1P1 / Fold change vs veh, GMCL1 /// GMCL1P1 / RFU, AEBP2 / Fold change vs veh, AEBP2 / RFU, SNHG1 /// SNORD22 /// SNORD25 /// SNORD26 /// SNORD27 /// SNORD28 /// SNORD29 /// SNORD31 / Fold change vs veh, SNHG1 /// SNORD22 /// SNORD25 /// SNORD26 /// SNORD27 /// SNORD28 /// SNORD29 /// SNORD31 / Fold change (Aza/veh), C12orf56 (ProbeSet 11735607_a_at) / Fold change (ACY-1035/veh), C12orf56 (ProbeSet 11735607_a_at) / Fold change (Aza/veh), FGFR1OP (ProbeSet 11751329_s_at) / Fold change (ACY-1035/veh), FGFR1OP (ProbeSet 11751329_s_at) / Fold change (Aza/veh), VPS36 (ProbeSet 11739960_a_at) / Fold change (ACY-1035/veh), VPS36 (ProbeSet 11739960_a_at) / RFU SYPL1 (11715823_x_at) / Fold change /veh SYPL1 (11715823_x_at) / RFU IGFBP7 (11715501_s_at) / Fold change /veh IGFBP7 (11715501_s_at) / RFU REEP3 (11722064_at) / Fold change /veh REEP3 (11722064_at) / RFU IGLL1 (11728026_x_at) / Fold change /veh IGLL1 (11728026_x_at): dose or concentration left out as unconfirmed
Details: ProbeSet 11747888_a_at; LIST D

With Nc1ncn([C@@H]2O[C@H](CO)[C@@H](O)[C@H]2O)c(=O)n1 [azacitidine] the “RFU, SH3YL1” value was 53.76 RFU.
